The source of these data is US7829665B2 (priority 2005, dated 2010).

For data set [1] the following is noted: from C=CCCCCC[C@H](NC(=O)OC(C)(C)C)C(=O)N1CCC[C@H]1C(=O)N[C@]1(C(=O)OCC)C[C@H]1C=C; rcm bond; Hoveyda 1st generation catalyst; 1,2-dichloroethane; 10.0 mM; 50.0 °C; 16.0 h.
For data set [2], the target named is T1, full-length NS3/NS4A-2 (HCV NS3 protease) (Hepatitis C virus genotype 1a, UniProt P27958).
T1 construct: Recombinant E. coli or Baculovirus full-length NS3 was diluted to 3.33 μM with assay buffer; made in house; host or cells: E. coli or baculovirus (BV) expression system
Description: NS3-NS4 protease assay / NS3 inhibition assay (RETS1 substrate, fluorescence kinetic read). In kind it is biochemical. The conditions noted are these: recombinant E. coli or Baculovirus full-length NS3 with NS4A-2; read-out: NS3-NS4 IC50. The gist of the method:
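Ki values come from IC50 fits corrected via Ki=IC50/(1+[S]/Km), with Km 2.03 μM for E. coli and 1.74 μM for baculovirus full-length NS3. Enzyme (2 or 3 nM NS3, respectively, complexed with NS4A-2) sat with compound, top concentration 50 microM, for 10 min at room temperature. Cleavage of RETS1 (8 μM working solution) was then followed by fluorescence (335/495 nm) over 30 min.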

Data set [3] concerns HCV sub-genomic replicon in GS4.3 cells (HuH-7 hepatoma cells). Description: Quantitation by ELISA of Neomycin phosphotransferase II (NPTII) in the HCV sub-genomic replicon, GS4.3. In kind it is cell-based, hepatitis C virus. The conditions noted are these: Table 26, read-out: EC50. A digest of the protocol: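 Replicon-bearing HuH-7 (GS4.3) cells were exposed to compounds for 72 h in G418-free medium, top final concentration 10 μM, 1% DMSO. Lysates went to an NPTII ELISA read at 450 nm. Signal was normalised to DMSO-treated wells and EC50 was derived by four-parameter curve fitting.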

Like-named read-outs stand apart in the source and are kept apart here. Where only a bound is given, the exact number is not on record here.

T1 sequence (P27958 1027-1657): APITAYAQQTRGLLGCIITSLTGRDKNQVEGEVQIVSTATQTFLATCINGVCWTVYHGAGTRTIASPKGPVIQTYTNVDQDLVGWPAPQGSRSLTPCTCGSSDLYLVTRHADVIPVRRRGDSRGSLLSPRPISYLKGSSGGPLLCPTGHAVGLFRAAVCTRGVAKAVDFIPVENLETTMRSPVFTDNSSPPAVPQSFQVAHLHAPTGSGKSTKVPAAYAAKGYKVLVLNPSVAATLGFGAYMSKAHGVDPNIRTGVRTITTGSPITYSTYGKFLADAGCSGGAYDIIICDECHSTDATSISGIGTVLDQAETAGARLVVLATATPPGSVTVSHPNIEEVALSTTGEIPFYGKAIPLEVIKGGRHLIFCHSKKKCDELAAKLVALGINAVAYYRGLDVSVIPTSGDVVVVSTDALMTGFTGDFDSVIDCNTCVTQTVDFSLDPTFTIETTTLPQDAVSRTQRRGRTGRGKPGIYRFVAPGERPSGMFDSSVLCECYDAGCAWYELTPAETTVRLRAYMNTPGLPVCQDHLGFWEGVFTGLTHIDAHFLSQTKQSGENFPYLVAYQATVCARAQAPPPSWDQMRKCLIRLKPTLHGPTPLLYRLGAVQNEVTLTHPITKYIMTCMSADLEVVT

In turn, `CCOC(=O)[C@@]12C[C@H]1C=CCCCCC[C@H](NC(=O)OC(C)(C)C)C(=O)N1CCC[C@H]1C(=O)N2` registered a ring closure, yield of all isomers in data set [1] of 76%.

As to `O=C(Cc1ccc(Cl)cc1)N[C@H]1CCCCC/C=C\[C@@H]2C[C@@]2(C(=O)NS(=O)(=O)C2CC2)NC(=O)C2CCCN2C1=O` (stereo partly shown) [Compound 2143], the IC50 in data set [2] was more than 10 µM. The EC50 in data set [3] (Hepatitis C virus, Huh-7) was more than 10 µM.

In the case of `O=C(Cc1ccccc1)N[C@H]1CCCCC/C=C\[C@@H]2C[C@@]2(C(=O)NS(=O)(=O)C2CC2)NC(=O)C2CCCN2C1=O` (stereo partly shown) [Compound 2144], in data set [2], the IC50 was more than 10 µM. In data set [3] (Hepatitis C virus, Huh-7), the EC50 is less than 1 µM.

As to “(1S,4R,6S,14S) tert-butyl 4-Cyclopropanesulfonylaminocarbonyl-2,15-dioxo-3,16-diaza-tricyclo[14.3.0.0^4,6]nonadec-7-ene-14-yl carbamate [Compound 2137]”, in data set [2], the IC50 is more than 10 µM. In data set [3], the EC50 is more than 10 µM.
